From ChEMBL document CHEMBL1142478, “Small molecule modulators of toll-like receptors” (J Med Chem, 2008)
One block for each molecule: values may come before it. The source made the active and inactive calls. The rule behind the calls is not given here. Where a SMILES comes first, the peptide text is derived from it. The star is where a group is joined. X1 = CCCCCCCCCCCCCC(=O)N[C@@H](C*)C(=O)NCCCCCCCC; Myristoyl = CCCCCCCCCCCCCC(=O)*

Key:
[1] = target: T1, Toll-like receptor 7 (Homo sapiens, UniProt Q9NYK1); experiment: (§1) Agonist activity at human TLR7 by luciferase reporter gene assay; assay type: functional
T1 sequence (Q9NYK1 whole entry): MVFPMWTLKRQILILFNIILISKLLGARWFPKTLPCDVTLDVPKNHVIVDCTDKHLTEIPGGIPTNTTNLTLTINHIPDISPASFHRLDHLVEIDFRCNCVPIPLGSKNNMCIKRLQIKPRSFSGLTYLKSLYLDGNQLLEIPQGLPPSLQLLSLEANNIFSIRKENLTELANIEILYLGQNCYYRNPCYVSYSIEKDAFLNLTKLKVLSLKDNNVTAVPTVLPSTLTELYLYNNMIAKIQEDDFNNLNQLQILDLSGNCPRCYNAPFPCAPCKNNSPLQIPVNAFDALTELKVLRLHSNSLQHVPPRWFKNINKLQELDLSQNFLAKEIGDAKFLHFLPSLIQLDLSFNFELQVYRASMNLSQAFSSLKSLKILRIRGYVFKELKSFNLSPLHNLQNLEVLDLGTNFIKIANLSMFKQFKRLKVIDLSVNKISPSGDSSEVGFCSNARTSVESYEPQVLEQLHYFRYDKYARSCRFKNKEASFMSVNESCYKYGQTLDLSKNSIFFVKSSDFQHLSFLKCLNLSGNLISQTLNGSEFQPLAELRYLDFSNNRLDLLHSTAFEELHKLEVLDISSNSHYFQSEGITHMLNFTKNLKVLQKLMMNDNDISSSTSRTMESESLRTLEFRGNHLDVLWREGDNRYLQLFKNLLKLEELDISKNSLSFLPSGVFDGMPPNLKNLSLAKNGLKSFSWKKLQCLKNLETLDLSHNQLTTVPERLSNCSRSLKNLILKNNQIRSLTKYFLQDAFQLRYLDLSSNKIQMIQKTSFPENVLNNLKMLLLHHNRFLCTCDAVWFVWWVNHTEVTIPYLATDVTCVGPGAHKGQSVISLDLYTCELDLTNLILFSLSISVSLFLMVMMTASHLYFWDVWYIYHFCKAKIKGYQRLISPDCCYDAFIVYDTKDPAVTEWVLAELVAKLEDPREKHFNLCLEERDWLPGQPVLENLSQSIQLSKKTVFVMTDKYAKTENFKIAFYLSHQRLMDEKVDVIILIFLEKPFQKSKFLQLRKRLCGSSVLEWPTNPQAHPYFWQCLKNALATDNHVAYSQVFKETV

[2] = species: Homo sapiens; experiment: Selectivity for human TLR2 over human TLR4
[3] = target: T2, Toll-like receptor 2 (Homo sapiens, UniProt O60603); experiment: Antagonist activity at human TLR2 expressed in HE293 cells co-transfected with pELAM by luciferase reporter gene assay; assay type: functional, cell-based, HEK293
T2 sequence (O60603 whole entry): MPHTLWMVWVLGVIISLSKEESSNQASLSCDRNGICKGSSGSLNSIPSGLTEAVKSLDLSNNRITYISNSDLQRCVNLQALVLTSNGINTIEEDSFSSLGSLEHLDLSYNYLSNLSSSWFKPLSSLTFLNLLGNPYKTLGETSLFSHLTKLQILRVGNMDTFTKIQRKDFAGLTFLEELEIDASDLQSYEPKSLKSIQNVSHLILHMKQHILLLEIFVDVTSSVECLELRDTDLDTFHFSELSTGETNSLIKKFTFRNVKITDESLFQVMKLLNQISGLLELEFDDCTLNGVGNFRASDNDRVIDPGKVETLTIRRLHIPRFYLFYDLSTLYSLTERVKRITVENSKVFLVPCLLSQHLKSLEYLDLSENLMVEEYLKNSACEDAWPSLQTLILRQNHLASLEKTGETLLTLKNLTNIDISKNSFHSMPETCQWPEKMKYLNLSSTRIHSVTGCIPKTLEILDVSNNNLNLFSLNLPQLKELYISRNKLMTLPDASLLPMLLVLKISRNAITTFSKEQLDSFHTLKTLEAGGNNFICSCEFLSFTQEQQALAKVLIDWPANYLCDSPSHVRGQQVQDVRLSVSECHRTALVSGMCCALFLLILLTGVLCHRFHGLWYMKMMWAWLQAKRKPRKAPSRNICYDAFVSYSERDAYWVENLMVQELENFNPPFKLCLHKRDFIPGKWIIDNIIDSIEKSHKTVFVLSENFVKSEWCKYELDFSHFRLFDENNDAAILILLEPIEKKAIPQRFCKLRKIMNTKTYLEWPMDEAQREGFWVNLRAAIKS

[4] = target: Toll-like receptor 4 (Mus musculus) (UniProt Q9QUK6); experiment: Inhibition of mouse TLR4-mediated cytokine production in mouse macrophages
[5] = target: T3, Toll-like receptor 8 (Homo sapiens, UniProt Q9NR97); experiment: Agonist activity at TLR8 in human PBMC cells assessed as TNFalpha level by ELISA; assay type: functional, cell-based
T3 sequence (Q9NR97 whole entry): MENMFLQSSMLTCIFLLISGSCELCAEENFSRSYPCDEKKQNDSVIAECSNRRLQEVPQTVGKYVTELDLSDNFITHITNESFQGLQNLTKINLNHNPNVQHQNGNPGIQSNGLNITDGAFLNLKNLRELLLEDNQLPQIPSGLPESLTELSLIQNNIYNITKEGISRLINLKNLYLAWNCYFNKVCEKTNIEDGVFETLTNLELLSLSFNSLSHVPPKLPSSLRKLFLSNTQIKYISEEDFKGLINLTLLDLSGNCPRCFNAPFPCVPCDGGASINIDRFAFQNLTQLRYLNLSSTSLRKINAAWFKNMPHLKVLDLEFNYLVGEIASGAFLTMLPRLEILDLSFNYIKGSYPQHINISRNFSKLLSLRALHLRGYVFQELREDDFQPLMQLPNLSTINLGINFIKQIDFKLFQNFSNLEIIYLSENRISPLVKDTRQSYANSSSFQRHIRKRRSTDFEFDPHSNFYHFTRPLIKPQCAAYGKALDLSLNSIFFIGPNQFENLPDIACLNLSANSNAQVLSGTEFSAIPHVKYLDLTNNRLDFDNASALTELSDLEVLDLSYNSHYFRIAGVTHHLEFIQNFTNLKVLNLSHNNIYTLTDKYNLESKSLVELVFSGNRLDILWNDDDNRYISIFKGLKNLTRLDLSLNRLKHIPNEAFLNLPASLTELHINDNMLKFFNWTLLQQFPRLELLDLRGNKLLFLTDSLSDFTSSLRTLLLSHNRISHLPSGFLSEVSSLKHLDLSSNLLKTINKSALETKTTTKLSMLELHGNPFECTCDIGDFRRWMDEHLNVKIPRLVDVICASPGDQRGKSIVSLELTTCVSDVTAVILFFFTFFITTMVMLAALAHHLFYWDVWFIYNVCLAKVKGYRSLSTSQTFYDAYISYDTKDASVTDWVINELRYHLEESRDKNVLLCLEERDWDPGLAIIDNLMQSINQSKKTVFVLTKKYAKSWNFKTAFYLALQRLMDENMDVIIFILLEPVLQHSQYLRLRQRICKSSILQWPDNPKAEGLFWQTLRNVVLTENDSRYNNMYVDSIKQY

[6] = target: T3, Toll-like receptor 8; experiment: Agonist activity at human TLR8 expressed in HEK cells by NF-kappaB luciferase reporter gene assay; assay type: functional, cell-based, HEK293
[7] = target: T1, Toll-like receptor 7; experiment: Agonist activity at TLR7 in human PBMC cells assessed as stimulation of interferon release; assay type: functional, cell-based
[8] = target: T4, Toll-like receptor 4 (Homo sapiens, UniProt O00206); experiment: Antagonist activity at human TLR4 assessed as inhibition of LPS-induced cytokine production in HL-60 cells
T4 sequence (O00206 whole entry): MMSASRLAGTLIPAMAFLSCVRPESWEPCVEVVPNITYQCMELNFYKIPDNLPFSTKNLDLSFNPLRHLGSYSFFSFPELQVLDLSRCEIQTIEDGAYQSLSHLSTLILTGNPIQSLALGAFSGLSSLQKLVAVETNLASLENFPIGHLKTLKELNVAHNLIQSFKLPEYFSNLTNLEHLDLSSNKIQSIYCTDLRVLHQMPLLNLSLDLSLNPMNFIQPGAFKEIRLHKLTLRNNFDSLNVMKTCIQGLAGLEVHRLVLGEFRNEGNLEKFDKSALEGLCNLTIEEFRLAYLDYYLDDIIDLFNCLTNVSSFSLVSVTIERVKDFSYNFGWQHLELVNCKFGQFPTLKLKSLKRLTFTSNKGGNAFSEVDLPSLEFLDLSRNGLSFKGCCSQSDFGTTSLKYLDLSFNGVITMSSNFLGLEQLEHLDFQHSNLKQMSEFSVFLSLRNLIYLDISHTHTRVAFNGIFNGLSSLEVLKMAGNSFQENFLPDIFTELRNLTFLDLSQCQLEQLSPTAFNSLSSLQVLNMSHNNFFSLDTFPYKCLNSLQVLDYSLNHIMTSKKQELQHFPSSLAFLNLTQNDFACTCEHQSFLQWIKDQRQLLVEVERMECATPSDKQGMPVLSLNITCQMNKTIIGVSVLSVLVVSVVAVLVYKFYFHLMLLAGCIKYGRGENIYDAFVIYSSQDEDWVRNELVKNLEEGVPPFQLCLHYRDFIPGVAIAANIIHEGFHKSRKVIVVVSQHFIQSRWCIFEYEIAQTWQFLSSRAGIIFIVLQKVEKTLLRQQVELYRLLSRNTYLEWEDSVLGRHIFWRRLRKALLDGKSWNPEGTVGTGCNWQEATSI

[9] = target: T4, Toll-like receptor 4; experiment: Antagonist activity at TLR4 in human HL60 cells assessed as inhibition of LPS-induced cytokine production; assay type: functional, cell-based, HL-60
[10] = target: T5, Toll-like receptor 7 (Homo sapiens) (UniProt Q9NYK1); experiment: as §1; assay type: functional
T5 sequence (whole entry): T1 sequence (Q9NYK1 whole entry)

[11] = target: T4, Toll-like receptor 4; experiment: Antagonist activity at TLR4 in human PBMC cells assessed as suppression of LPS-induced cytokine upregulation; assay type: functional, cell-based
[12] = target: T4, Toll-like receptor 4; experiment: Antagonist activity at human TLR4 expressed in HE293 cells by ELAM1-luciferase reporter gene assay; assay type: functional, cell-based, HEK293
[13] = target: T6, Toll-like receptor 9 (Homo sapiens, UniProt Q9NR96); experiment: Antagonist activity at human TLR9 expressed in HEK293 cells assessed as blockade of CpG oligonucleotide-induced immune response by NF-kappaB luciferase reporter gene assay; assay type: functional, cell-based
T6 sequence (Q9NR96 whole entry): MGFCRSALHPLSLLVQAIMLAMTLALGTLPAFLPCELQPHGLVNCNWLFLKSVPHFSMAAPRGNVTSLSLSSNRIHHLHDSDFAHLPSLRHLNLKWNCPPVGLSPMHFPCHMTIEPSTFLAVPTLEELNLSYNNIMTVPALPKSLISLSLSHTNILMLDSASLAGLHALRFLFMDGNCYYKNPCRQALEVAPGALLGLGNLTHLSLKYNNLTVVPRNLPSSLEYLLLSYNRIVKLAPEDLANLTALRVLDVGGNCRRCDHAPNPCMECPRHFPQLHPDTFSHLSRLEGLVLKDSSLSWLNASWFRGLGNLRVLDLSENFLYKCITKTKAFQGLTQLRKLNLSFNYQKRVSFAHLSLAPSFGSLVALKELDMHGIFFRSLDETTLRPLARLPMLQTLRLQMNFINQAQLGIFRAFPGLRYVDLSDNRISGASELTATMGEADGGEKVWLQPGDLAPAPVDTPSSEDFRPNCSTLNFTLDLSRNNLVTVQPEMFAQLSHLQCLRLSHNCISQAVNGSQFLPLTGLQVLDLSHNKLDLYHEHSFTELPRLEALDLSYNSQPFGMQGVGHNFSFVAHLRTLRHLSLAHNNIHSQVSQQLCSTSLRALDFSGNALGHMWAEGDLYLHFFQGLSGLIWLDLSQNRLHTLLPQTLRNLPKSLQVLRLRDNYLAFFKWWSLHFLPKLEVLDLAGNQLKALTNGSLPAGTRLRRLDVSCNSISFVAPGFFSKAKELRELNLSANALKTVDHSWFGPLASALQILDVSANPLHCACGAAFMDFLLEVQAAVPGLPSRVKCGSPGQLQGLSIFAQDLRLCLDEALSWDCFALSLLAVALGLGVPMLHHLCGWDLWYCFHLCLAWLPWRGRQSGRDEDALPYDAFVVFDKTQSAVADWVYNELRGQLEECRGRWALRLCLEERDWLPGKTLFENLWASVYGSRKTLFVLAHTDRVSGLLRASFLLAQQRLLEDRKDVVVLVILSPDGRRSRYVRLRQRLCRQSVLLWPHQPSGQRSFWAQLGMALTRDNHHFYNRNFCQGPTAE

[14] = target: T2, Toll-like receptor 2; experiment: Inhibition of TLR2-mediated IL8 secretion in human THP1 cells; assay type: cell-based, THP-1

Compound: CCCCCCCCCCCCCCCCCCCC(=O)N[C@@H](COP(=O)(O)OCCNC(=O)[C@@H](NC(=O)Cc1c[nH]c2ccccc12)[C@@H](C)CC)C(=O)NCCC(O)CCCCCCCCCCCCC (some centres undefined)
Selectivity ratio [2]: > 25 | IC50 [3]: 460 nM

Compound: CCOC(=O)C1=CCCCCC1S(=O)(=O)Nc1ccc(F)cc1Cl (centres undefined)
IC50 [4]: 240 nM

Compound: CCN(CC)C(=O)N1CC(N)=Nc2ccccc2C1
EC50 [5]: < 100000 nM | EC50 [6]: < 100000 nM

Compound: CCOC(=O)C1=CCCCC1S(=O)(=O)Nc1ccc(F)cc1Cl (centres undefined)
IC50 [4]: 3.2 nM

Compound: CCOC(=O)C1=CCCC1S(=O)(=O)Nc1ccc(F)cc1Cl (centres undefined)
IC50 [4]: 110 nM

Compound: CCCCCC/C=C\CCCCCCCCCC(=O)N[C@H]1[C@H](OC[C@H]2O[C@H](OP(=O)(O)O)[C@H](NC(=O)CC(=O)CCCCCCCCCCC)[C@@H](OCCCCCCCCCC)[C@@H]2O)O[C@H](COC)[C@@H](OP(=O)(O)O)[C@@H]1OCC[C@@H](CCCCCCC)OC [ERITORAN TETRASODIUM]
IC50 [8]: 1.5 nM | IC50 [9]: 1.5 nM

Compound: Cc1ccc(Cn2c(=O)[nH]c3c(N)nc(-c4nccs4)cc32)cn1
EC50 [1]: 100 nM

Compound: CCOC(=O)C1=CCCCC1S(=O)(=O)Nc1ccc(Cl)cc1F (centres undefined)
IC50 [4]: 160 nM

Compound: Nc1ccccc1Oc1ccc2c(N)nsc2c1
IC50 [11]: 3000 nM | IC50 [12]: 7000 nM

Compound: CCOC(=O)C1=CCCCC1S(=O)(=O)NC1=NCCS1 (centres undefined)
IC50 [4]: > 10000 nM

Compound: CCOC(=O)N1CC(N)=Nc2ccccc2C1
EC50 [5]: < 100000 nM | EC50 [6]: < 100000 nM

Compound: CCCCCCCCCCCCCC(=O)N[C@@H](CSC[C@H](NC(=O)CCCCCCCCCCCCC)C(=O)N[C@@H](CO)C(=O)N[C@@H](CCCCN)C(=O)N[C@@H](CCCCN)C(=O)N[C@@H](CCCCN)C(=O)N[C@@H](CCCCN)C(N)=O)C(=O)NCCCCCCCC (Myristoyl-C(X1)SKKKK-NH2)
IC50 [14]: 5000 nM

More lines, now with the values ahead:

EC50 [1]: > 10000 nM
Compound: COCCOc1nc(N)c2nc(N)n(Cc3ccccc3)c2n1

IC50 [3]: 230 nM
Compound: CCCCCCCCCCCCCCCC(=O)N[C@@H](COP(=O)(O)OCCNC(=O)[C@@H](NC(=O)Cc1c[nH]c2ccc(-c3ccccc3)cc12)[C@@H](C)CC)C(=O)NCCCOC(=O)CCCCCCCCCCC

EC50 [1]: 3200 nM
Compound: COCCOc1nc(N)c2nc(NCCCO)n(Cc3ccccc3)c2n1

Selectivity ratio [2]: > 25 | IC50 [3]: 240 nM
Compound: CCCCCCCCCCCCCCCCCCCC(=O)N[C@@H](COP(=O)(O)OCCNC(=O)[C@@H](NC(=O)Cc1c[nH]c2ccc(OCc3ccccc3)cc12)[C@@H](C)CC)C(=O)NCCC(O)CCCCCCCCCCCCC (some centres undefined)

EC50 [1]: 10 nM | EC50 [7]: 10 nM
Compound: Nc1nc(NCc2ccccc2)nc2c1[nH]c(=O)n2Cc1cccc(CP(=O)(O)O)c1

EC50 [1]: 790 nM
Compound: COCCOc1nc(N)c2nc(NN)n(Cc3ccccc3)c2n1

EC50 [1]: 10 nM | EC50 [7]: 10 nM
Compound: COCCOc1nc(N)c2nc(S)n(Cc3cccc(CP(C)(=O)O)c3)c2n1

Activity [10]: inactive
Compound: CCN(CC)c1nc2c(N)nc(OCCOC)nc2n1Cc1ccccc1

EC50 [1]: < 20 nM
Compound: COCCOc1nc(N)c2[nH]c(=O)n(CCCN(Cc3ccc(CC(=O)OC)cc3)C(=O)CN3CCN(C)CC3)c2n1

EC50 [1]: < 20 nM
Compound: COCCOc1nc(N)c2[nH]c(=O)n(CCCN(Cc3ccc(CC(=O)OC)cc3)C(=O)CCC(=O)OC(C)(C)C)c2n1

IC50 [3]: 900 nM
Compound: CCCCCCCCCCCCCC(=O)N[C@@H](COP(=O)(O)OCCNC(=O)[C@@H](NC(=O)Cc1ccc(O)cc1)[C@@H](C)C(=O)O)C(=O)NCCC(CCCCCCC)OC(=O)CCCCCCCCCCC (some centres undefined)

IC50 [4]: > 10000 nM
Compound: CCOC(=O)c1ccccc1S(=O)(=O)Nc1ccc(F)cc1Cl

IC50 [13]: 3 nM
Compound: CN(C)CCNc1nc(-c2ccc(N3CCN(C)CC3)cc2)nc2ccccc12

EC50 [1]: 4400 nM
Compound: CCNc1nc2c(N)nc(OCCOC)nc2n1Cc1ccccc1
